In patent US6413967B1, “Inhibition of novel calcium entry pathway in electrically non-excitable cells acting as an anti-proliferative therapy” (The University of Virginia Patents Foundation, priority 1995, dated 2002):

How the values were obtained:
[1] = test system: [Ca^2+]i in Jurkat T cells; assay: receptor-stimulated Ca2+ influx in Jurkat T cells (anti-CD3 mAb OKT3); format: cell-based, human; parameters: key to T cell [Ca^2+]i (pre) / T cell [Ca^2+]i: NE: no effect; ND: not determined; details: 10 or 30 μM drug; for T cell [Ca^2+]i: effect the same post- and pre- T cell receptor stimulation; for T cell [Ca^2+]i (post): drug added post T cell receptor stimulation; for T cell [Ca^2+]i (pre): drug added pre T cell receptor stimulation
Protocol: Initially, all drugs are screened using Jurkat T cells incubated with indo-1/AM as outlined below. In the event that there is an effect of the drug on the maximum [Ca^2+]i reached following treatment of the cells with the anti-CD3 mAb […], the drug is evaluated for any effects on the spectral characteristics of indo-1 as outlined in Haverstick and Gray, Mol. Biol. Cell (1993) 4:173. If there is an effect of the drug on the spectral characteristics of indo-1 , the drug is further examined for spectral effects on the combination of fura-red and fluo-3. If there is no effect of the drug on the fura-red/fluo-3 combination, the drug is examined for effects on the maximum [Ca^2+]i reached following OKT3 treatment of cells incubated with 5 μM fura-red and […] as outlined below.
Jurkat cells are incubated in RPMI-1640 plus 5% fbs in the presence of the acetoxymethyl ester of either indo-1 (1 μM) or the combination of fura-red (5 μM) with fluo-3 (1 μM) for one hour at 37° C. Cells are washed three times in buffer A [[…] 4-(2-hydroxyethyl)-1-piperazine ethanesulfonic acid (HEPES), pH 7.4, 3 MM KCl, 1 mM MgCl2, 1 mM CaCl2, 140 mM NaCl, 0.1% glucose] containing 1% fbs and suspended to a final concentration of 1×10^6/ml. Cells are then placed in the 37° C. jacketed cell holder of the SLM 8000C. Antigen receptor engagement is mimicked by the addition of the anti-CD3 monoclonal antibody OKT3 (Gray et al, J. Exp. Med. (1988) 167:1963; Gray et al, J. Immunol. 142:1631). The effect of drug added prior to receptor stimulation or at the plateau phase of Ca^2+ entry is determined as follows:
Prior drug: 10 or 30 μM drug @ 30 seconds, 1 μg/ml OKT3 at 90 seconds
Post drug: 1 μg/ml OKT3 at 30 second, 10 or 30 μM drug @ 120 seconds

[2] = test system: MDA-468 human breast cancer cells; assay: MDA-468 cell proliferation, tetrazolium dye; format: cell-based; parameters: key to MDA PROLIF: NE: no effect; ND: not determined; details: human breast cancer cell proliferation, 48 hours
Protocol: (§1) The effect of various drugs on the proliferation of Jurkat T cells, MDA-468 human breast cancer cells and PC3 human prostate cancer cells was determined by incubating the cells with the indicated concentrations of drug for 48 hours. The number of viable cells remaining at the end of the incubation period was evaluated using the procedure outlined in Example 4.
(§2) Cells are plated in triplicate in a 96-well flat-bottomed plate (Jurkat: 5e4 cells/well in RPMI-1640 plus 5% fbs; MDA468: 2.5e4 per well in DMEM plus 5% fbs and 11 μg/ml insulin) in the absence (control) or presence of drug at 3, 10, 30, and 100 μM. An additional control of 100 μM drug in RPMI-1640 plus 5% fbs or DMEM plus 5% fbs and 11 μg/Ml insulin with no cells is included with each run to control for possible drug interactions with the dye. The plate is then placed in a 5% CO2 37° C. incubator for 44 to 48 hours. 20 μl of dye solution containing a tetrazolium dye (3-(4,5-dimethylthiazol-2-yl)-5-(3-carboxymethoxyphenyl)-2-(4-sulfophenyl)-2H-tetrazolium, Owen's reagent) plus coupling reagent (phenazine methosulfate) is added to each well, the plate is returned to the incubator, and the absorbance at 490 nm is read using an ELISA plate reader 3 to 4 h (Jurkat cells) or 2 to 3 h (MDA-468 cells) later. All data are presented as percent of control (no drug addition). With this protocol, it is possible to determine the effect of 5 drugs at 4 concentrations in a single 96-well plate as outlined below: […]

[3] = test system: VG Ca^2+ current in Jurkat cells; assay: perforated patch clamp, voltage gated (VG) Ca2+ current; format: cell-based, human
Protocol: (§3) All recordings were performed using the perforated patch method (Horn et al, J. Gen. Physiol. (1988) 92:145) of the gigaseal patch clamp technique (Hammil et al, Pflugers Arch (1981) 391:85) with microelectrodes of 5-10 megohm series resistance. In all solutions for voltage clamp, K^+ was replaced with Cs^+ to block outward K^+ currents (Fox et al, J. Physiol. (Lond.) (1987) 392:149). The bath solution contained (in mM): NaCl, 155; CsCl, 4.5; CaCl2, 2; MgCl2, 1; D-glucose, 5; HEPES, 10 (pH 7.4 with NaOH). The pipette solution contained (in mM): CsCl, 55; Cesium methanesulfonate, 70; CaCl2, 1; MgCl2, 7; HEPES, 10 (pH 7.3 with NaOH). Nystatin was made as a stock solution of 6 mg/100 μl DMSO, and 2 μl of the stock was added to 1 ml of the pipette solution for use. Both pipette and bath solutions were 290-300 mOsm. Experiments were performed on cells at room temperature using the Axopatch-1D patch clamp (Axon Instruments, Foster City, Calif.) after correction of junction potentials and leak subtraction. Records were low-pass filtered at 500 Hz, and the data were collected, stored and analyzed using the pClamp software program (Axon Instruments). For the non-voltage gated current traces, data is presented either as the tracing from a chart recorder or from the digital data in which the current was measured at 5 second intervals and plotted as individual points.

[4] = test system: NVG current in Jurkat cells; assay: perforated patch clamp, non-voltage gated (NVG) current; format: cell-based, human
Protocol: as §3

[5] = test system: Jurkat T cells; assay: Jurkat cell proliferation, tetrazolium dye; format: cell-based, human; parameters: key to T cell PROLIF: NE: no effect; ND: not determined; details: 48 hours
Protocol: as §1, §2

[6] = test system: [Ca^2+]i in MDA-468 cells; assay: EGF receptor-stimulated Ca2+ influx in MDA-468 cells; format: cell-based, human; parameters: key: NE: no effect; ND: not determined; details: for MDA [CA^2+]i: effect the same post- and pre- EGF receptor stimulation
Protocol: MDA468 cells are incubated with either indo-1 or the combination of fura-red/fluo-3 for 1 hour while still adherent in the maintenance flask in DMEM plus 5% fbs and 1 μg/ml insulin. Cells are removed by gentle scraping and washed three times in buffer A containing 1% charcoal stripped fbs (Nelson et al, Br. J. Cancer (1991) 63:933). The cells are then suspended to a final concentration of 1e6/ml and used as above in the SLM. For the human breast cancer cells, Ca^2+ entry is stimulated by the addition of 25 ng/ml EGF, rather than the antibody used above.

Compound: COc1cc(CCO)ccc1O [3-methoxy, 4-hydroxyphenylethanol]
- T cell [Ca^2+]i [1]: NE
- MDA PROLIF [2]: NE

Compound: COc1cc(C(O)C(O)CO)ccc1O (stereo not drawn) [3-methoxy, 4-hydroxyphenylglycerol]
- T cell [Ca^2+]i [1]: NE
- MDA PROLIF [2]: NE

Compound: [Cl][Mn][Cl] [MnCl2]
- increase of the VG Ca^2+ current ([3]; 0.3 mM Mn^2+ in medium containing 2 mM Ca^2+): about 10%
- effect on the VG Ca^2+ current ([3]; amiloride 100 μM, MnCl2 300 μM, NiCl2 1 mM, W-7 alone (unstimulated current)): not blocked
- effect on the thapsigargin-induced NVG current ([4]; membrane potential −60 mV, 300 nM thapsigargin, amiloride 100 μM, MnCl2 300 μM, NiCl2 1 mM, W-7 30 μM, NDGA 10 μM): reversibly blocked

Compound: Nc1cc(-c2ccncc2)c[nH]c1=O [amrinone]
- T cell [Ca^2+]i [1]: NE
- MDA PROLIF [2]: NE

Compound: CC(C)COCC(CN(Cc1ccccc1)c1ccccc1)N1CCCC1 (stereo not drawn) [bepridil]
- T cell [Ca^2+]i (post) [1]: ↓ (post)
- T cell [Ca^2+]i (pre) [1]: NE (pre)
- T cell PROLIF [5]: ↓
- MDA [CA^2+]i [6]: ↑
- MDA PROLIF [2]: ↓

Compound: CC(NC(C)(C)C)C(=O)c1cccc(Cl)c1 (stereo not drawn) [bupropion]
- T cell [Ca^2+]i [1]: NE
- T cell PROLIF [5]: NE
- MDA PROLIF [2]: NE

Compound: CN1CCN(C(c2ccccc2)c2ccc(Cl)cc2)CC1 (stereo not drawn) [chlorcyclizine]
- T cell [Ca^2+]i [1]: NE
- MDA [CA^2+]i [6]: ↑
- MDA PROLIF [2]: ↓

Compound: C(=C\c1ccccc1)/CN1CCN(C(c2ccccc2)c2ccccc2)CC1 [cinnarizine]
- T cell [Ca^2+]i [1]: ↓
- T cell PROLIF [5]: ↓
- MDA [CA^2+]i [6]: NE
- MDA PROLIF [2]: NE

Compound: COc1cc(/C=C/C(=O)CC(=O)/C=C/c2ccc(O)c(OC)c2)ccc1O [curcumin]
- T cell PROLIF [5]: ↓
- MDA PROLIF [2]: NE

Compound: CN1CCN(C(c2ccccc2)c2ccccc2)CC1 [cyclizine]
- T cell [Ca^2+]i [1]: NE
- MDA PROLIF [2]: NE

Compound: O=C1CN(/N=C/c2ccc(-c3ccc([N+](=O)[O-])cc3)o2)C(=O)N1 [datrolene]
- T cell [Ca^2+]i [1]: NE
- MDA [CA^2+]i [6]: NE
- MDA PROLIF [2]: NE

Compound: CCN(CC)C(=O)N1CCN(C)CC1 [diethylcarbamazine]
- T cell [Ca^2+]i [1]: NE
- T cell PROLIF [5]: NE
- MDA [CA^2+]i [6]: NE
- MDA PROLIF [2]: NE

Compound: CC(NCCC(c1ccccc1)c1ccccc1)c1ccccc1 (stereo not drawn) [fendiline]
- T cell [Ca^2+]i [1]: ↓
- T cell PROLIF [5]: ↓
- MDA [CA^2+]i [6]: ↑
- MDA PROLIF [2]: ↓

Compound: Fc1ccc(C(c2ccc(F)cc2)N2CCN(C/C=C/c3ccccc3)CC2)cc1 [flunarizine]
- T cell [Ca^2+]i [1]: ↓
- T cell PROLIF [5]: ↓
- MDA [CA^2+]i [6]: NE
- MDA PROLIF [2]: NE

Compound: OCCN1CCN(CCCN2c3ccccc3Sc3ccc(C(F)(F)F)cc32)CC1 [fluphenazine]
- T cell [Ca^2+]i [1]: ↓
- T cell PROLIF [5]: ↓
- MDA [CA^2+]i [6]: ↓
- MDA PROLIF [2]: ↓

Compound: OCCOCCN1CCN(C(c2ccccc2)c2ccc(Cl)cc2)CC1 (stereo not drawn) [hydroxyzine]
- T cell [Ca^2+]i [1]: NE
- T cell PROLIF [5]: NE
- MDA PROLIF [2]: NE

Compound: COC(=O)C1=C(C)NC(C)=C(C(=O)OC(C)C)C1c1cccc2nonc12 (stereo not drawn) [isradipine]
- T cell [Ca^2+]i [1]: ↓
- T cell PROLIF [5]: NE
- MDA PROLIF [2]: NE

Compound: Cc1cccc(C)c1NC(=O)CN1CCN(CCCC(c2ccc(F)cc2)c2ccc(F)cc2)CC1 [lidoflazine]
- T cell [Ca^2+]i [1]: ↓
- T cell PROLIF [5]: ↓
- MDA PROLIF [2]: (↓)

Compound: Cc1cccc(CN2CCN(C(c3ccccc3)c3ccc(Cl)cc3)CC2)c1 (stereo not drawn) [meclizine]
- T cell [Ca^2+]i (post) [1]: ↓ (post)
- T cell [Ca^2+]i (pre) [1]: NE (pre)
- T cell PROLIF [5]: (↓)
- MDA PROLIF [2]: NE

Compound: CN1CCN2c3ccccc3Cc3ccccc3C2C1 (stereo not drawn) [mianserin]
- T cell [Ca^2+]i [1]: NE
- T cell PROLIF [5]: NE
- MDA PROLIF [2]: NE

Compound: COC(=O)C1=C(C)NC(C)=C(C(=O)OCCN(C)Cc2ccccc2)C1c1cccc([N+](=O)[O-])c1 (stereo not drawn) [nicardipine]
- MDA [CA^2+]i [6]: NE

Compound: O=C(O)c1cccnc1Nc1cccc(C(F)(F)F)c1 [niflumic acid]
- T cell [Ca^2+]i (post) [1]: ↓ (post)
- T cell [Ca^2+]i (pre) [1]: NE (pre)
- T cell PROLIF [5]: (↓)
- MDA PROLIF [2]: NE

Compound: C1CCC(C(CC2CCCCN2)C2CCCCC2)CC1 (stereo not drawn) [perhexiline]
- T cell [Ca^2+]i (post) [1]: ↑ (post)
- T cell [Ca^2+]i (pre) [1]: ↓(pre)
- T cell PROLIF [5]: ↓
- MDA [CA^2+]i [6]: ↑
- MDA PROLIF [2]: ↓

Compound: CCn1cc(C(=O)O)c(=O)c2cnc(N3CCNCC3)nc21 [pipenidic acid]
- T cell [Ca^2+]i [1]: NE
- T cell PROLIF [5]: NE
- MDA PROLIF [2]: NE

Compound: c1ccc2nc(N3CCNCC3)ccc2c1 [quipazine]
- T cell [Ca^2+]i [1]: NE
- MDA PROLIF [2]: NE

Compound: COc1ccc2cc1Oc1ccc(cc1)C[C@H]1c3cc(c(OC)cc3CCN1C)Oc1c(OC)c(OC)cc3c1[C@H](C2)N(C)CC3 [tetrandrine, 6,6′,7,12-tetramethoxy-2,2′-dimethyl-baman]
- T cell [Ca^2+]i (pre) [1]: NE (pre)
- MDA [CA^2+]i (pre) ([6]; drug added pre EGF receptor stimulation): NE (pre)

Compound: Cc1nc(C)c(C)nc1C [tetranethylpyrazine]
- T cell [Ca^2+]i [1]: NE
- MDA PROLIF [2]: NE

Compound: C/C=C(/C)C(=O)O[C@H]1C(C)=C2[C@H]([C@@H]1OC(=O)CCCCCCC)[C@@](C)(OC(C)=O)C[C@H](OC(=O)CCC)[C@@]1(O)[C@H]2OC(=O)[C@@]1(C)O [thapsigargin]
- mean maximum VG Ca^2+ current following addition ([3]; 300 nM thapsigargin, n=10, unstimulated 18.7 pA): 30.6 pA
- mean maximum magnitude of the induced NVG current ([4]; imposed membrane potential −60 mV, n=38): 3.6 pA

Compound: O=c1n(CCCN2CCN(c3cccc(Cl)c3)CC2)nc2ccccn12 [trazodone]
- T cell [Ca^2+]i [1]: NE
- T cell PROLIF [5]: NE
- MDA PROLIF [2]: NE
